Where “and” joins values, the source holds several entries; their conditions need not be identical. Identical values can stand only once.
Legend:
[1] = tested on: Extremely small-size miniature pigs (Microminipig); assay: Test Example 1: electrocardiogram of halothane-anesthetized extremely small-size miniature pigs; type: in vivo; details: pig; for Heart rate (HR) / PR interval / QT interval / RR interval: 0.1 mg/kg/10 min i.v., individuals #1, #2, 0.1 mg/kg
Description: Extremely small-size miniature pigs (trade name: Microminipig, body weight: about 10 kg, male, obtained from Fuji Micra Inc.) were each anesthetized by allowing them to inhale 100% by volume oxygen and 4% by volume vaporized halothane (product of Takeda Pharmaceutical Company Limited.). After insertion of a tracheal cannula, an artificial respirator was used to ventilate it with 100% by volume oxygen and 1% by volume vaporized halothane. Here, the artificial respirator for experimental animals was set to a tidal volume of 10 mL/kg and a respiration rate of 20 strokes/min. Next, a cannula for drug administration was inserted to their left femoral vein. Then, ECG standard limb II leads was continuously recorded.
Each of the extremely small-size miniature pigs (n=2) of Example 1 was recorded for an electrocardiogram before drug administration.
(§1) Fingolimod (FTY720, product of Sigma-Aldrich Inc.) was dissolved in physiological saline (product of Otsuka Pharmaceutical Factory, Inc.) so as to have a concentration of 0.1 mg/mL.
After the evaluation of base control, the cannula for drug administration was inserted, and the above-prepared FTY720 solution was intravenously administered to each of the extremely small-size miniature pigs (n=2) of Example 1 for 10 min at a dose of 0.1 mg/kg. An electrocardiogram was recorded for 60 min from the start of administration of the FTY720 solution.

[2] = tested on: Monkeys (Macaca fascicularis); assay: Test Example 2: electrocardiogram of halothane-anesthetized monkeys; type: in vivo; details: monkey, 50 min after the administration
Procedure: (§2) Monkeys (Macaca fascicularis, body weight: about 3 kg, male, produced in China, purchased from a domestic breeder) were each anesthetized by intravenously administering thereto sodium thiopental (product of Mitsubishi Tanabe Pharma Corporation) at 25 mg/kg. After insertion of a tracheal cannula, an artificial respirator was used to ventilate it with 100% by volume oxygen and 1% by volume vaporized halothane. Here, the artificial respirator for experimental animals was set to a tidal volume of 20 mL/kg and a respiration rate of 15 strokes/min. Next, a cannula for drug administration was inserted to their left femoral vein. Then, ECG standard limb II leads was continuously recorded.
Each of the monkeys (n=2) of Example 2 was recorded for an electrocardiogram before drug administration.
as §1
After the evaluation of base control, the cannula for drug administration was inserted, and the above-prepared FTY720 solution was intravenously administered to each of the monkeys (n=2) of Example 2 for 10 min at a dose of 0.1 mg/kg. An electrocardiogram was recorded for 60 min from the start of administration of the FTY720 solution.

Dogs = assay: Comparative Test Example 1: electrocardiogram of halothane-anesthetized dogs; type: in vivo; details: dog, 30 min recording
Procedure: as §2, with “Dogs (body” for “Monkeys (Macaca fascicularis, body”, “10” for “about 3”, “obtained” for “produced in China, purchased”, “Nosan Co., Ltd.)” for “a domestic breeder)”, “30” for “25”
Each of the dogs (n=4) of Comparative Example 1 was recorded for an electrocardiogram before drug administration.
Fingolimod (FTY720, product of Sigma-Aldrich Inc.) was dissolved in 1% by mass lactic acid solution (product of Otsuka Pharmaceutical Factory, Inc.) so as to have a concentration of 0.3 mg/mL.
After the evaluation of base control, the cannula for drug administration was inserted, and the above-prepared FTY720 solution was intravenously administered to each of the dogs (n=4) of Comparative Example 1 for 10 min at a dose of 0.3 mg/kg. An electrocardiogram was recorded for 30 min from the start of administration of the FTY720 solution.
Fingolimod (FTY720, product of Sigma-Aldrich Inc.) was dissolved in 1% by mass lactic acid solution (product of Otsuka Pharmaceutical Factory, Inc.) so as to have a concentration of 3 mg/mL.
After the evaluation of base control, the cannula for drug administration was inserted, and the above-prepared FTY720 solution was intravenously administered to each of the dogs (n=4) of Comparative Example 1 for 10 min at a dose of 3 mg/kg. An electrocardiogram was recorded for 30 min from the start of administration of the FTY720 solution.

human = details: 366 cases, 1.25 mg/day, Holter ECG one day after administration; cited from earlier work
mouse = details: dose 10 times to 30 times greater than that for human; cited from earlier work
[3] = 10 min after the administration
[4] = 60 min after the administration
[5] = 0.1 mg/kg/10 min i.v., individuals #1, #2, 0.1 mg/kg

CCCCCCCCc1ccc(CCC(N)(CO)CO)cc1 [FTY720, Fingolimod]
QT interval change versus base control ([1]; 0.1 mg/kg i.v., 10 min after the administration): prolongation of QT interval was observed | PR interval change versus base control ([1]; 0.1 mg/kg i.v., 60 min after the administration): prolongation of PR interval was also observed | Heart rate (HR) [1, 3]: 137 beats/min and 192 beats/min | PR interval [1, 3]: 78 ms and 71 ms | QT interval [1, 3]: 271 ms and 221 ms | RR interval [1, 3]: 438 ms and 311 ms | Heart rate (HR) [1, 4]: 197 beats/min and 108 beats/min | PR interval [1, 4]: 75 ms and 89 ms | QT interval [1, 4]: 227 ms and 271 ms | RR interval [1, 4]: 304 ms and 552 ms | PR interval change versus base control ([2]; 0.1 mg/kg i.v.): prolongation of PR interval was observed | Heart rate (HR) ([2]; 0.1 mg/kg/10 min i.v., individuals #1, #2): 105 beats/min | Heart rate (HR) [2, 5]: 104 beats/min | PR interval [2, 5]: 71 ms and 110 ms | change in PR interval (Dogs; high-dose 3 mg/kg/10 min i.v.): no change | change in heart rate (HR) (Dogs; high-dose 3 mg/kg/10 min i.v.): significantly increased | change in PR interval (Dogs; low-dose 0.3 mg/kg/10 min i.v.): no significant change | change in heart rate (HR) (Dogs; low-dose 0.3 mg/kg/10 min i.v.): no significant change | cases that developed advanced atrioventricular block (2:1 atrioventricular block) (human): 3.4% | cases that developed second-degree atrioventricular block (Mobitz type I or type II) (human): 6.6% | cases that developed third-degree atrioventricular block (complete atrioventricular block) (human): 0.3% | occurrence of atrioventricular block (mouse): not reported

From patent US10750729B2, “Pig for atrioventricular block model, monkey for atrioventricular block model, guinea pig for atrioventricular block model, and use thereof” (Toho University, priority 2012, dated 2020)
